Reference: patent US20250101061A1, “UPREGULATION OF FERRITIN HEAVY CHAIN 1 EXPRESSION” (HBC Immunology Inc., priority 2022, published 2025)
Values joined by “and” are separate entries in the source; they are usually repeats but may differ in a detail not shown here. Equal entries are not always repeated.

Tests used:
FTH1 = FTH1 gene expression in human skeletal muscle cells (HSkMC) by qRT-PCR; assay type: cell-based; conditions: for FTH1 Fold Change, Average / FTH1 Fold Change (individual runs): SPH 100 μM or synthetic oligopeptide 10 μM, about 12 hours; for FTH1 Fold Change (individual runs): triplicate runs; for FTH1 Fold Change at 0.625 μM / FTH1 Fold Change at 1.25 μM / FTH1 Fold Change at 2.5 μM / FTH1 Fold Change at 5 μM / FTH1 Fold Change at 10 μM: average of triplicate (SD ≤ 0.3)
Procedure: A cell line derived from human skeletal muscle was selected to assess the effect of SPH and oligopeptides on gene expression. HSkMC (PCS-950-010) obtained from ATCC (Manassas, VA) were propagated in Mesenchymal Stem Cell Basal Medium (ATCC) reduced serum medium supplemented with Primary Skeletal Cell Muscle Growth Kit (ATCC) that contains L-Glutamine (10 mM), Dexamethasone ([…]), rh epidermal growth factor (5 ng/ml), rh FGF-b (5 ng/ml), rh Insulin (25 μg/mL), and fetal bovine serum (4%), on 100 mm cell culture dishes. For this assay, the HSkMC cells were seeded in 24 well plates at a cell density of 1×10^4 cells/cm^2 and maintained at 37° C. in a humidified 5% CO2 atmosphere. […]
Total RNA was extracted using the UPzol reagent for the cell pellets, followed by a DNAse treatment (DNAse TURBO), using the manufacturer's protocols. Complementary DNA (cDNA) was synthesized with the High Capacity cDNA Reverse Transcription Kit (Applied Biosystems) using random hexamers. Gene expression levels were measured by qRT-PCR.
1 μl of cDNA corresponding to 50 ng of reverse transcribed RNA was amplified by Qpcr (QuantStudio™ 6 Flex Real-Time PCR System), using the TaqMan™ Universal PCR Master Mix (Catalog No. 4304437) and a TaqMan™ assay (Roche Molecular Systems, Inc., Pleasanton, CA).
FTH1 gene expression was estimated relative to expression of the housekeeping gene, beta-actin (ACTB), following the standard formula: […]
2-ΔCt. TaqMan™ probe IDs used were: (i) FTH1, Hs01694011_s1; and (ii) ACTB, Hs01060665_g1. All experiments were run in triplicate.

[1] = test system: Immortalized human astrocytes (P10251-IM); experiment: Protection of human astrocytes from hemin-induced injury (LDH release assay); assay type: cell-based; conditions: 24 hr pre-treatment: SPH 160 μM, oligopeptide 10 μM, collagen control 160 μM; then 30 μM hemin 6 hrs; scaled to 0.1% Triton X-100 lysis
Procedure: Immortalized human astrocytes (P10251-IM) were obtained from Innoprot, Spain and prepared under conditions recommended by the supplier. At 90% confluency, the P10251-IM cells were rinsed with 8 ml of DPBS and 2 ml of the T/E Solution (prepared as per Innoprot procedure), then added into an […] and gently rocked so that the P10251-IM cells would be completely covered. The flask was subsequently incubated at 37° C. for 2 minutes. Then 5 ml of fetal bovine serum (FBS) and the T/E solution from the flask were added into a 50 ml conical centrifuge tube. The flask was incubated for an additional 2 minutes, and the P10251-IM cells dislodged from the surface by gentle tapping. The P10251-IM cells were then transferred to the 50 ml conical centrifuge tube with 5 ml of TNS solution. The tube was centrifuged at 1000 rpm for 5 minutes. Then the P10251-IM cells were resuspended in the culture medium, counted, and plated in a poly-L-lysine-coated culture plate at 1×10^4 cell density. Cells were tested after they were incubated for 21 days in vitro.
Confluent P10251-IM cell cultures were washed and then pre-treated with medium alone, or medium supplemented with SPH (160 μM) or an oligopeptide (10 μM) for 24 hr at 37° C. Commercial collagen peptide (Vital Protein) at 160 μM concentration and sterile water were used as negative controls. The P10251-IM cells were subsequently treated with 30 μM hemin in serum-free medium consisting of MEM with 10 mM glucose (MEM10) for 6 hrs.
P10251-IM astrocyte cultures that were […] with 30 μM hemin sustained widespread cell injury. Cell viability was quantified using the lactate dehydrogenase (LDH) release assay as previously described (Chen and Regan, Curr Neurovasc Res, 2:189-196, 2005). Briefly, quantification of the protective effects of SPH and oligopeptides were assessed by determining the mean percentage LDH released, scaled to the complete lysis control culture which was treated with 0.1% Triton X-100 (considered to release 100% of culture LDH).

Substance	FTH1 Fold Change, Average (FTH1)	FTH1 Fold Change (individual runs) (FTH1)	FTH1 Fold Change at 0.625 μM (FTH1)	FTH1 Fold Change at 1.25 μM (FTH1)	FTH1 Fold Change at 2.5 μM (FTH1)	FTH1 Fold Change at 5 μM (FTH1)	FTH1 Fold Change at 10 μM (FTH1)	% LDH Release (individual runs) [1]	% LDH Release, Average [1]
KEEDEESGE [FT-003]	1.1 fold	1.1 fold and 1.0 fold and 1.3 fold	–	–	–	–	–	–	–
KPREESGE [FT-004]	2.1 fold	2.1 fold and 2.2 fold and 1.9 fold	1.1 fold	1.1 fold	1.1 fold	1.3 fold	2.1 fold	–	–
LDEESGEP [FT-005]	1.8 fold	1.7 fold and 1.8 fold (2×)	–	–	–	–	–	–	–
REESGE [FT-001]	1.7 fold	1.6 fold and 1.8 fold (2×)	–	–	–	–	–	–	–
REESGEP [FT-002]	2.2 fold	2.1 fold and 2.0 fold and 2.5 fold	1.0 fold	1.0 fold	1.1 fold	1.4 fold	2.2 fold	–	–
Triton X-100 [0.1% Triton X-100, reference compound]	–	–	–	–	–	–	–	100% (2×) and 99%	100%
